US10414811B2, “Protease-resistant lipidated GLP-1 analogs” (MEDIMMUNE LIMITED, priority 2015, dated 2019)
Like-named read-outs stand apart in the source and are kept apart here. Numbered stars: 1 amine (or outer) side, 2 acyl side, 3 side chain; on linkers, the order of the positions; unused ones are H or OH. Square brackets hold non-standard residues; d marks the D form. Side chains are listed from the residue outwards. Peptide text beside a SMILES is read from it. * marks the point of attachment. γGlu = O=C(O)[C@H](CCC(=O)[*:2])N[*:1]; αMeF = C[C@](N)(Cc1ccccc1)C(=O)O; αMeK = C[C@](N)(CCCCN)C(=O)O; Lauroyl = CCCCCCCCCCCC(=O)*; αMeS = C[C@](N)(CO)C(=O)O; AEEA = NCCOCCOCC(=O)O; Aib = CC(C)(N)C(=O)O

What was measured:
[1] = Proteolytic resistance to fasted-state simulated intestinal fluid (FASSIF/Pancreatin); assay type: in vitro ADME; settings: 37° C., read-out: Percentage remaining intact peptide (AUC by RP-HPLC) upon incubation with fasted-state simulated intestinal fluid (FASSIF/P)
Experimental: A fresh suspension of FASSIF/P (Fasted-State Simulated Intestinal Fluid+USP Pancreatin®) was prepared according to that described by Galia, Nicolaides, Hörter, Löbenberg, Reppas and Dressman: Pharm. Res. 15 (1998) 698-705. The resulting preparation is proteolytically equivalent to ˜375 units/mL (375 kU/L) and was used immediately without storage. Peptides for evaluation (1.0 mg, ˜250 nmoles) were initially dissolved in pre-warmed FASSIF without Pancreatin® (200 μL) to which was added pre-warmed fresh FASSIF/Pancreatin® (100 μL) to initiate potential digestion. Following momentary vortexing of the Eppendorf reaction tube the mixture was incubated at 37° C. in a thermostatic waterbath for the duration of the experiment. 25 μL aliquots of the co-incubated peptide-enzyme mixture were periodically withdrawn (t=0, 5 m, 10 m, 15 m, 30 m, 1 h, 2 h) and quenched immediately by addition to a solution of 10% TFA in 1:1 water/acetonitrile (75 μL) to arrest proteolytic activity.

trypsin = target: T1, trypsin (Sus scrofa, UniProt P00761); experiment: Proteolytic resistance to trypsin (% remaining intact peptide, RP-HPLC AUC); assay type: in vitro ADME; settings: pig, porcine pancreatic trypsin, 37° C., pH 7.8, read-out: Percentage remaining intact peptide (AUC by RP-HPLC) upon incubation with trypsin; for remaining at 0.5 h: t = 30 min; for remaining at 1 h: t = 1 hr; for remaining at 2 h: t = 2 hr; for remaining at 4 h: t = 4 hr; for remaining at 8 h: t = 8 hr
T1 construct: purchased Sigma T7409
T1 sequence (P00761 9-231): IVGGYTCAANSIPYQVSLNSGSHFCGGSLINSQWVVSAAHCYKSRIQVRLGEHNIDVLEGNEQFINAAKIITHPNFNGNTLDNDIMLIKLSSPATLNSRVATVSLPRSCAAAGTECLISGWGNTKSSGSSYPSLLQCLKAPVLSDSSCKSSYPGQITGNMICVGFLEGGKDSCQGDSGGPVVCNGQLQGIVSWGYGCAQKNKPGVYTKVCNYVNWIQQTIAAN
Excerpt: Ratio enzyme (units):peptide (μmoles)˜1:11. […] Ratio enzyme (units):peptide (μmoles)˜1.2:1.

[2] = target: T2, human GLP-1 receptor (GLP-1R) (Homo sapiens, UniProt P43220); experiment: cAMP assay, human GLP-1R cells; assay type: cell-based; settings: bis-lipidated peptides
T2 construct: expressed in transfected cells
T2 sequence (P43220 24-463): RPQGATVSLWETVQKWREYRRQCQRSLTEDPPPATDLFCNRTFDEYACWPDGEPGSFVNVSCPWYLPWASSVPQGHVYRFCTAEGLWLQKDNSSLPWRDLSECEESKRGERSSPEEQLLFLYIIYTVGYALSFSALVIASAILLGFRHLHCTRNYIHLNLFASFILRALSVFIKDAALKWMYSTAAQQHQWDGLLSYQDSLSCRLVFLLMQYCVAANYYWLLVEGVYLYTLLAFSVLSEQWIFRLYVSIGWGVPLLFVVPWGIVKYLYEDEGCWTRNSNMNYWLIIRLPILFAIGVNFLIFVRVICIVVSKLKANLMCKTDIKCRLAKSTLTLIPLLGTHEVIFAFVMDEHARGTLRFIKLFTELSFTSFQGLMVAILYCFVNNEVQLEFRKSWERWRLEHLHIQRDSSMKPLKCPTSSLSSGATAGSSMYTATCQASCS
How it was run: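 Peptide-stimulated cAMP measured by two-step HTRF after a 30 min room-temperature incubation with receptor-expressing cells (hGLP-1R, hGIPR at 1×10^5 cells/ml; hGCGR at 2×10^5 cells/ml). Duplicate dilutions; EC50 from 4-parameter logistic fit of % Delta F.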

pepsin = target: T3, pepsin (Sus scrofa, UniProt P00791); experiment: Proteolytic resistance to pepsin (% remaining intact peptide, RP-HPLC AUC); assay type: in vitro ADME; settings: pig, porcine pepsin, 37° C., pH 2.0, read-out: Percentage remaining intact peptide (AUC by RP-HPLC) upon incubation with pepsin; for remaining at 0.5 h: t = 30 min; for remaining at 1 h: t = 1 hr; for remaining at 2 h: t = 2 hr; for remaining at 4 h: t = 4 hr; for remaining at 8 h: t = 8 hr; for remaining at 24 h: t = 24 hr
T3 construct: purchased Sigma P7012
T3 sequence (P00791 60-385): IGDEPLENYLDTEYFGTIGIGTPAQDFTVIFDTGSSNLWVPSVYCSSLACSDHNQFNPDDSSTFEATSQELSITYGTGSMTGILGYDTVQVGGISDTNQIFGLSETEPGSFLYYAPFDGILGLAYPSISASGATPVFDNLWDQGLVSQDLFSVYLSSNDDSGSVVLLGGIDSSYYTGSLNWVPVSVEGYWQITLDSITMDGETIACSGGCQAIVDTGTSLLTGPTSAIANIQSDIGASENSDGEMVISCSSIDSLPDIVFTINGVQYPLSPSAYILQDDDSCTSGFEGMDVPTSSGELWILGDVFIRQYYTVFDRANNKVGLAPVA
Experimental: Lyophilized porcine […] pepsin (Sigma: P7012) was reconstituted to afford a solution of 200 μg/mL (˜500 units/mL) in assay buffer (0.1 M HCl, pH 2.0) to give the enzyme stock solution. […] Ratio enzyme (units):peptide (μmoles)˜1:6. […] Ratio enzyme (units):peptide (μmoles)˜2:1.
Lyophilized porcine […] pepsin (Sigma: P7012) was reconstituted to 200 μg/mL (˜500 units/mL) in assay buffer (1.0 M HCl, pH 2.0) to give the enzyme stock solution.

Neprilysin = target: T4, Neprilysin (Homo sapiens, UniProt P08473); experiment: Proteolytic resistance to neprilysin (% remaining peptide, RP-HPLC AUC); assay type: in vitro ADME; settings: 37° C., pH 8.3; for remaining at 0.5 h: t = 30 min; for remaining at 1 h: t = 1 hr; for remaining at 4 h: t = 4 hr; for remaining at 8 h: t = 8 hr; for remaining at 24 h: t = 24 hr, read-out: Percentage remaining peptide (AUC at specified time-point by RP-HPLC) upon incubation with neprilysin, t = 24 hr
T4 construct: purchased R&D Systems 1182-ZNC-010
T4 sequence (P08473 whole entry): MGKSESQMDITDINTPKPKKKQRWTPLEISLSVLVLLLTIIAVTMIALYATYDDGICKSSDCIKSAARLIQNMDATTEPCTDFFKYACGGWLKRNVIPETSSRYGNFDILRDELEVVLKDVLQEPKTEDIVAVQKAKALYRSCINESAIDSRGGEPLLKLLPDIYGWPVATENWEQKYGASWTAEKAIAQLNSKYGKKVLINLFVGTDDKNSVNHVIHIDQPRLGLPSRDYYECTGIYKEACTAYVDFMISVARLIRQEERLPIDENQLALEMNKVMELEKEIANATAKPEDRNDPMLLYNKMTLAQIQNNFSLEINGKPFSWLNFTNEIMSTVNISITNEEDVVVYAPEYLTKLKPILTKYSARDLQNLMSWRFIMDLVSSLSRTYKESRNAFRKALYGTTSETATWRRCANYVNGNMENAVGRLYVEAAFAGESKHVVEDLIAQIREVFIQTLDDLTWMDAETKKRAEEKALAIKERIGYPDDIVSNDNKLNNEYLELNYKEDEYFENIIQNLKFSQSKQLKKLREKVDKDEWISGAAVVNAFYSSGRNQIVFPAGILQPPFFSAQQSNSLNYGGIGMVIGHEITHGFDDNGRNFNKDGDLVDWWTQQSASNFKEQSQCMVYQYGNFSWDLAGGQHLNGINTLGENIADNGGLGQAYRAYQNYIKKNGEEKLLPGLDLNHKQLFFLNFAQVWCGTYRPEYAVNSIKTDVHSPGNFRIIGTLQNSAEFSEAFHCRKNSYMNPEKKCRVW
Experimental: Ratio enzyme (units):peptide (μmoles)˜1:33. […] Ratio enzyme (units):peptide (μmoles)˜1:2.5.
15 μL aliquots (˜15 μg initial peptide) of the peptide-enzyme mixture were periodically withdrawn (t=0, 30 mins, 1 hr, 2 hr, 4 hr, 8 hr, 24 hr) and quenched immediately by addition to an equal volume (15 μL) of 5% TFA (v/v) in 1:1 water/acetonitrile to arrest proteolytic activity. 20 μL aliquots (˜10 μg initial peptide) were analyzed by LC/MS and/or analytical RP-HPLC as follows: LC/MS method: Agilent Polaris C8-A column (4.6×100 mm, 3 micron) eluted with a linear binary gradient of 10-90% MeCN (0.1% TFA v/v) in water (0.1% TFA v/v) over 30 mins at 1.5 mL min-1 at ambient temperature with detection by both UV absorption at 210 nm and ionization using a Waters 3100 mass detector (ESI+ mode). Peptide fragments deriving from enzymatic hydrolysis were identified by molecular weight, allowing location of the site of cleavage. Analytical RP-HPLC method: Agilent Polaris C8-A column (4.6×100 mm, 3 micron) eluted with a linear binary gradient of 10-90% MeCN (0.1% TFA v/v) in water (0.1% TFA v/v) over either 10 or 15 mins at 1.5 mL min^−1 at 40° C. with detection by UV absorption at 210 nm. Manual integration (AUC) allowed estimation of remaining intact peptide over the time course of the experiment.
25 μL aliquots (˜6 μg initial peptide) were analyzed by LC/MS and/or analytical RP-HPLC as follows: LC/MS method: Agilent Polaris C8-A column (4.6×100 mm, 3 micron) eluted with a linear binary gradient of 10-90% MeCN (0.1% TFA v/v) in water (0.1% TFA v/v) over 30 mins at 1.5 mL min^−1 at ambient temperature with detection by both UV absorption at 210 nm and ionization using a Waters 3100 mass detector (ESP mode). Peptide fragments deriving from enzymatic hydrolysis were identified by molecular weight, allowing location of the site of cleavage. Analytical RP-HPLC method: Agilent Polaris C8-A column (4.6×100 mm, 3 micron) eluted with a linear binary gradient of 10-90% MeCN (0.1% TFA v/v) in water (0.1% TFA v/v) over either 10 or 15 mins at 1.5 mL min^−1 at 40° C. with detection by UV absorption at 210 nm. Manual integration (AUC) allowed estimation of remaining intact peptide over the time course of the experiment.

GLP-1R (INS1e assay) = target: T5, GLP-1R (INS1e assay) (Rattus norvegicus, UniProt P32301); experiment: INS1e assay, cAMP activity at GLP-1R; assay type: cell-based; settings: bis-lipidated peptides
T5 construct: endogenous in cells; host or cells: INS-1E cells
T5 sequence (P32301 22-463): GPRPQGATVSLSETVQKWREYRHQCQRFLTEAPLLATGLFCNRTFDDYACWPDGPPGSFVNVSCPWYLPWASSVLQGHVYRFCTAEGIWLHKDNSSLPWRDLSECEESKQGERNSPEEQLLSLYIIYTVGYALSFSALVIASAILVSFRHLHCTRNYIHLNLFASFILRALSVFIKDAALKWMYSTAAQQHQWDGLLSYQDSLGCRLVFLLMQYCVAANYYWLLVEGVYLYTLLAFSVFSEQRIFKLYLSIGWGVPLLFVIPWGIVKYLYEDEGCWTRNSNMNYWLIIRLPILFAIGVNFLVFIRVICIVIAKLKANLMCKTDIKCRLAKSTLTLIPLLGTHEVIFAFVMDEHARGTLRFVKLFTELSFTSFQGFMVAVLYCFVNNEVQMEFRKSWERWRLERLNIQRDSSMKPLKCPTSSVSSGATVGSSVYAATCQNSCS
How it was run: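 cAMP was quantified by two-step HTRF, using anti-cAMP cryptate donor and cAMP-d2 acceptor, each diluted 1/20 in conjugate and lysis buffer. EC50 values of the synthetic peptides were derived from the cAMP readout.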

[3] = mean of n1 and n2, read-out: Primary assay EC50 Mean pM GLP-1R
[4] = replicate n2, read-out: Primary assay EC50 GLP-1R n2
[5] = mean of n1 and n2, read-out: INS1e assay EC50 Mean pM GLP-1R
[6] = replicate n1, read-out: INS1e assay EC50 GLP-1R n1
[7] = replicate n2, read-out: INS1e assay EC50 GLP-1R n2

Row | remaining at 0.5 h (trypsin) [%] | remaining at 1 h (trypsin) [%] | remaining at 2 h (trypsin) [%] | remaining at 4 h (trypsin) [%] | remaining at 8 h (trypsin) [%] | EC50 [2, 3] [pM] | EC50 [2, 4] [pM] | remaining at 0.5 h (pepsin) [%] | remaining at 1 h (pepsin) [%] | remaining at 2 h (pepsin) [%] | remaining at 4 h (pepsin) [%] | remaining at 8 h (pepsin) [%] | remaining at 24 h (pepsin) [%] | remaining at 0.5 h (Neprilysin; recombinant neprilysin) [%] | remaining at 1 h (Neprilysin; recombinant neprilysin) [%] | remaining at 4 h (Neprilysin; recombinant neprilysin) [%] | remaining at 8 h (Neprilysin; recombinant neprilysin) [%] | remaining at 24 h (Neprilysin; recombinant neprilysin) [%] | Percentage remaining peptide (AUC at specified time-point by RP-HPLC) upon incubation with neprilysin, t = 0 (Neprilysin) [%] | EC50 (GLP-1R (INS1e assay); [5]) [pM] | Structure (SMILES) | also measured
1 | 98.9 | 97.2 | 94.8 | 89.8 | 85 | 1.2 | 1.45 | 57.7 | 36 | 14.3 | 5.1 | 1.1 | 0 | 98.3 | 99.5 | 92.3 | 91.2 | 91.9 | 100 | 132 | CCCCCCCCCCCC(=O)N[C@@H](CCC(=O)NCCOCCOCC(=O)NCCOCCOCC(=O)NCCCC[C@H](NC(=O)[C@H](C)NC(=O)[C@@H](NC(=O)[C@H](Cc1ccccc1)NC(=O)[C@H](CCC(=O)O)NC(=O)[C@](C)(CCCCN)NC(=O)[C@H](C)NC(=O)[C@H](C)NC(=O)[C@H](CCC(=O)O)NC(=O)CNC(=O)[C@H](CCC(=O)O)NC(=O)[C@H](CC(C)C)NC(=O)[C@H](CCCCNC(=O)COCCOCCNC(=O)COCCOCCNC(=O)CC[C@H](NC(=O)CCCCCCCCCCC)C(=O)O)NC(=O)[C@H](CO)NC(=O)[C@](C)(CO)NC(=O)[C@@H](NC(=O)[C@H](CC(=O)O)NC(=O)[C@H](CO)NC(=O)[C@@H](NC(=O)[C@](C)(Cc1ccccc1)NC(=O)[C@H](CO)NC(=O)CNC(=O)[C@H](CCC(=O)O)NC(=O)C(C)(C)NC(=O)[C@@H](N)Cc1c[nH]cn1)[C@@H](C)O)C(C)C)[C@@H](C)CC)C(=O)N[C@H](C(=O)N[C@H](C(=O)N[C@@H](CCC(=O)O)C(=O)NCC(=O)NCC(N)=O)C(C)C)C(C)C)C(=O)O [compound 263] (H-H[Aib]EGS[αMeF]TSDV[αMeS]SK([AEEA-AEEA-γGlu-Lauroyl])LEGEAA[αMeK]EFIAK([AEEA-AEEA-γGlu-Lauroyl])VVEGG-NH2) | remaining at 5 min, […] ([1]; t = 5 m): 93.1%; remaining at 1 h, […] ([1]; t = 1 h): 35.1%; remaining at 2 h (Neprilysin; recombinant neprilysin, t = 2 hr): 97.7%; EC50 (GLP-1R (INS1e assay); [6]): 120 pM; EC50 (GLP-1R (INS1e assay); [7]): 144 pM
2 | 96.8 | 95.2 | 89.9 | 85.2 | 82.9 | 4.6 | 5.24 | 74.9 | 55.8 | 38.6 | 22.4 | 13.4 | 0 | 95.7 | 92.8 | 95.3 | 89.7 | 89.3 | 100 | 212 | CCCCCCCCCCCC(=O)N[C@@H](CCC(=O)NCCOCCOCC(=O)NCCOCCOCC(=O)NCCCC[C@H](NC(=O)[C@H](C)NC(=O)[C@@H](NC(=O)[C@H](Cc1ccccc1)NC(=O)[C@H](CCC(=O)O)NC(=O)[C@](C)(CCCCN)NC(=O)[C@H](C)NC(=O)[C@H](C)NC(=O)[C@H](CCC(=O)O)NC(=O)CNC(=O)[C@H](CCC(=O)O)NC(=O)[C@H](CCCCNC(=O)COCCOCCNC(=O)COCCOCCNC(=O)CC[C@H](NC(=O)CCCCCCCCCCC)C(=O)O)NC(=O)[C@H](Cc1ccc(O)cc1)NC(=O)[C@H](CO)NC(=O)[C@](C)(CO)NC(=O)[C@@H](NC(=O)[C@H](CC(=O)O)NC(=O)[C@H](CO)NC(=O)[C@@H](NC(=O)[C@](C)(Cc1ccccc1)NC(=O)[C@H](CO)NC(=O)CNC(=O)[C@H](CCC(=O)O)NC(=O)C(C)(C)NC(=O)[C@@H](N)Cc1c[nH]cn1)[C@@H](C)O)C(C)C)[C@@H](C)CC)C(=O)N[C@H](C(=O)N[C@H](C(=O)N[C@@H](CCC(=O)O)C(=O)NCC(=O)NCC(N)=O)C(C)C)C(C)C)C(=O)O [compound 269] (H-H[Aib]EGS[αMeF]TSDV[αMeS]SYK([AEEA-AEEA-γGlu-Lauroyl])EGEAA[αMeK]EFIAK([AEEA-AEEA-γGlu-Lauroyl])VVEGG-NH2) | remaining at 24 h (trypsin; t = 24 hr): 74.7%; EC50 ([2]; replicate n1, read-out: Primary assay EC50 GLP-1R n1): 4.01 pM; EC50 (GLP-1R (INS1e assay); [6]): 243 pM; EC50 (GLP-1R (INS1e assay); [7]): 181 pM
